Results published in patent publication US20110262502A1, “PULMONARY DELIVERY OF 17-HYDROXYPROGESTERONE CAPROATE (17-HPC)” (Prairie Pharmaceuticals LLC, priority 2010, published 2011).
Where two headings read alike, the source gives them in different places.

Legend:
[1] = test system: PHA-induced IL-2 production in PBMCs; experiment: PHA-induced IL-2 production in PBMCs from healthy male smokers (no IL-2/IL-4 added), ELISA; type: cell-based, human; settings: for inhibition at 0.01 µM / inhibition at 10 µM / inhibition at 0.0001 µM: Homo sapiens, PBMC
Protocol: PBMCs were isolated from human blood buffy coats provided by a regional blood center. Random buffy coat cells from male donors were a by-product of blood processed for clinical use and no details (i.e., personal identification and background) were provided except for tobacco use. […] PBMCs were separated using a porous high density polyethylene barrier (HISTOPAQUE from GEHealthcare Bio-Sciences AB (US). After centrifugation of blood samples in each tube (35 minutes at 800×g at room temperature, or RT), PBMCs were collected and washed twice with Hank's buffered saline solution (HBSS). PBMCs were resuspended in RPMI-1640 medium containing 10% fetal calf serum (FCS) and 15 mM glutamine and cells were counted and plated.
(§1) PBMCs (2×10^6) were incubated with or without IL-2 (13 ng/ml) and IL-4 (6.5 ng/ml) for 48 hours in RPMI-1640 medium containing 10% FCS and 2 mM glutamine. […] IL-2 and IL-4 stimulated PBMCs were also plated at a concentration of 10^6 cells/ml in 96-well plates ready for PHA (15 μg/mL, 24 hours) stimulation of cytokine release and detection by ELISA.
Serial dilutions of standards and PBMCs' supernatants were measured by enzyme linked immunosorbent assay to determine IL-2 at baseline and its levels after 17HPC, P4 and MAP treatments. Optical density was measured at 450 nm and corrected with 550 nm. The concentration of TL-2 was calculated using the standard curve and taking into account the supernatant dilution used. Detection limit for IL-2 is 4.0 pg/ml.
Data are expressed as mean±SD. The efficacies of the drug treatments were analyzed by paired t-test. One-way analysis of variance was used to compare three or more matched groups and 95% CI was performed to present groups differences. All graphs indicate mean values of results or % inhibition of PHA-stimulated IL-2. IC50 values were calculated by using a sigmoidal model (BioDataFit). A p value <0.05 was considered statistically significant.
(§2) IL-2 levels were quantified using ELISA.
IL-2 levels were quantified using ELISA. IC50 values were calculated by using a sigmoidal model (BioDataFit).
as §2, §2, §2

[2] = test system: PHA-induced IL-2 release in IL-2 and IL-4 treated (steroid resistant) PBMCs; experiment: IL-2/IL-4 induced steroid resistance model in PBMCs: dexamethasone inhibition of PHA-induced IL-2 release; type: cell-based, human; settings: Dexamethasone 10^−10 M
Protocol: J Immunol 2009; 183; 164-171). […] Following PBMCs stimulation with mitogen phytohaemagglutinin (PHA), there is a strong correlation between cytokine secretion levels and steroid resistance as well as steroid sensitivity in vitro. Addition of IL-2, IL-4 and TNF-reduce steroid sensitivity.
as §1
IL-2/4 induced steroid resistance in PBMCs, a well-recognized study model, was used to evaluate potential modifiers of steroid resistance and sensitivity. PBMCs from healthy smokers were collected. Corticosteroid insensitivity or resistance was induced by adding IL-2 and IL-4 in peripheral blood mononuclear cells (PBMCs) from healthy male smokers (n=˜11). […] IL-2 levels were quantified using ELISA.
J Immunol 2009; 183; 164-171).
as §2

[3] = test system: patients with severe premenstrual exacerbations of asthma; settings: intramuscular, added to regimen incl. corticosteroids; 3 cases; cited from earlier work
[4] = test system: females with severe asthma; settings: sublingual; sixteen patients; cited from earlier work
[5] = test system: mitogen-activated protein kinase; settings: rat uterine smooth muscle; cited from earlier work
[6] = read-out: % inhibition of PHA-induced IL-2 production
[7] = MPA 10^−5M + Dexamethasone 10E−8M
[8] = MPA 10^−8M + Dexamethasone 10E−8M
[9] = MPA 10^−8M + Dexamethasone 10E−11M
[10] = MPA 10^−10M + Dexamethasone 10E−8M
[11] = P4 10^−5M + Dexamethasone 10E−8M
[12] = P4 10^−8M + Dexamethasone 10E−8M
[13] = P4 10^−8M + Dexamethasone 10E−11M
[14] = P4 10^−10M + Dexamethasone 10E−8M

Compound: CC(=O)O[C@]1(C(C)=O)CC[C@H]2[C@@H]3C[C@H](C)C4=CC(=O)CC[C@]4(C)[C@H]3CC[C@@]21C [MPA, MEDROXYPROGESTERONE ACETATE]
- inhibition at 0.01 µM [1]: 78%
- inhibition at 10 µM [1]: 95%
- inhibition at 0.0001 µM [1, 6]: 73%
- inhibition at 0.0001 µM ([1]; read-out: IL-2 inhibition): ≥ 86%
- % inhibition of PHA-induced IL-2 production [1, 7]: (98%)
- mean IL-2 [1, 7]: 12.3 pg/mL
- mean IL-2 ([1]; MPA 10^−5M, PHA, no Dexamethasone): 39.8 pg/mL
- % inhibition of PHA-induced IL-2 production [1, 8]: 96%
- mean IL-2 [1, 8]: 29.2 pg/mL
- % inhibition of PHA-induced IL-2 production [1, 9]: (83%)
- mean IL-2 [1, 9]: 129.1 pg/mL
- mean IL-2 ([1]; MPA 10^−8M, PHA, no Dexamethasone): 166.9 pg/mL
- % inhibition of PHA-induced IL-2 production [1, 10]: (94%)
- mean IL-2 [1, 10]: 44.7 pg/mL
- mean IL-2 ([1]; MPA 10^−10M, PHA, no Dexamethasone): 206.1 pg/mL
- improvement in corticosteroid sensitivity, responding sub-group ([2]; FIG. 9): up to 58%
- reduction (worsening) in corticosteroid sensitivity, other sub-group ([2]; FIG. 9): up to 88%

Compound: CC(=O)[C@H]1CC[C@H]2[C@@H]3CCC4=CC(=O)CC[C@]4(C)[C@H]3CC[C@]12C [P4, Progesterone]
- inhibition at 0.01 µM [1]: 36%
- inhibition at 10 µM [1]: 85%
- inhibition at 0.0001 µM [1, 6]: 34%
- inhibition at 0.0001 µM ([1]; read-out: IL-2 inhibition): ≥ 86%
- % inhibition of PHA-induced IL-2 production [1, 11]: (89%)
- mean IL-2 [1, 11]: 81.2 pg/mL
- mean IL-2 ([1]; P4 10^−5M, PHA, no Dexamethasone): 113.8 pg/mL
- % inhibition of PHA-induced IL-2 production [1, 12]: (88%)
- mean IL-2 [1, 12]: 91.4 pg/mL
- % inhibition of PHA-induced IL-2 production [1, 13]: (87%)
- mean IL-2 [1, 13]: 100.8 pg/mL
- mean IL-2 ([1]; P4 10^−8M, PHA, no Dexamethasone): 486.2 pg/mL
- % inhibition of PHA-induced IL-2 production [1, 14]: (92%)
- mean IL-2 [1, 14]: 59.6 pg/mL
- mean IL-2 ([1]; P4 10^−10M, PHA, no Dexamethasone): 506.9 pg/mL
- subjects with more than 10% improvement in maximal Dexamethasone inhibition ([2]; FIGS. 7-8): 6 out of 8
- effect on premenstrual fall in peak flow rate [3]: eliminated the premenstrual dips in peak flow
- patients with an increase in both FEV1 and FVC [4]: 50%
- patients with an increase of 27% or greater in PEF [4]: 50%
- patients with bronchodilator effect (greater than 12% increase) in either FEV1 or FVC [4]: 75%
- effect on MAPK tyrosine phosphorylation and membrane-associated MAPK activity [5]: increased MAPK tyrosine phosphorylation and membrane-associated MAPK activity

Compound: estradiol-17 beta [estrogen]
- effect on MAPK tyrosine phosphorylation and membrane-associated MAPK activity [5]: increased MAPK tyrosine phosphorylation and membrane-associated MAPK activity
